# Data from patent publication US11795460B2, “Compositions and methods for TTR gene editing and treating ATTR amyloidosis” (Intellia Therapeutics, Inc., priority 2017, dated 2023).
# Legend:
# TTR [1] = assay: TTR editing in primary human hepatocytes electroporated with Spy Cas9 protein loaded with dgRNAs (Table 7); format: cell-based; conditions: dgRNA electroporated with Spy Cas9 protein (RNP)
# Procedure, shortened: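 Editing efficiency is the fraction of NGS reads carrying insertions, deletions or substitutions at the TTR target, measured on MiSeq amplicons from DNA harvested 24, 48 or 72 h post-delivery. Cas9–dgRNA ribonucleoprotein was nucleofected (P3 buffer, EX-147) into primary human or cyno hepatocytes.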
# TTR [2] = assay: TTR editing in primary human hepatocytes transfected with Spy Cas9 protein (RNP) loaded with dgRNAs (Table 8); format: cell-based; conditions: dgRNA transfected with Spy Cas9 protein (RNP)
# Procedure, shortened: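 Primary human hepatocytes were lipofected (RNAiMAX) with RNP of Spy Cas9 (10 nM) plus pre-annealed crRNA (10 nM) and trRNA (10 nM) and harvested 24, 48 or 72 h later. Target-site amplicons were sequenced on Illumina MiSeq and aligned to hg38; percent editing = reads with indels or substitutions over total reads.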
# TTR [3] = assay: TTR editing in HUH7 cells transfected with Spy Cas9 mRNA and dgRNAs (Table 5); format: cell-based, human; conditions: HUH7 cells co-transfected with Spy Cas9 mRNA (SEQ ID NO:2) and dgRNAs
# Procedure, shortened: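 Percent editing is the share of NGS reads at the TTR target carrying insertions, deletions or substitutions, from amplicon sequencing of genomic DNA harvested at 24, 48 or 72 h. HUH7 cells first received Cas9 mRNA (100 ng) by lipofection, then dual-guide RNA (crRNA and tracer, 25 nM each).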
Sequence,Avg % Deletion (TTR [1]),Avg % Edit (TTR [1]),Avg % Insert (TTR [1]),Avg % Deletion (TTR [2]),Avg % Edit (TTR [2]),Avg % Insert (TTR [2]),Avg % Deletion (TTR [3]),Avg % Edit (TTR [3]),Avg % Insert (TTR [3])
"GCGGCAAUGGUGUAGCGGCG (tested as dual guide RNA, chemistry not given here) [CR003377]",0.10%,10.23%,10.13%,0.31%,12.77%,12.45%,29.89%,34.93%,5.59%
"AGUCCCUCAUUCCUUGGGAU (tested as dual guide RNA, chemistry not given here) [CR003392]",0.17%,4.13%,4.00%,0.14%,10.07%,9.93%,26.98%,28.37%,1.93%
"CUGCUCCUCCUCUGCCUUGC (tested as dual guide RNA, chemistry not given here) [CR003335]",2.50%,72.20%,69.70%,1.63%,51.14%,49.51%,27.57%,31.95%,4.62%
"CUGAGGAGGAAUUUGUAGAA (tested as dual guide RNA, chemistry not given here) [CR003364]",6.53%,23.30%,16.93%,11.36%,35.29%,23.93%,23.03%,47.13%,24.68%
"AAGUGCCUUCCAGUAAGAUU (tested as dual guide RNA, chemistry not given here) [CR003368]",0.80%,28.47%,27.63%,1.00%,34.83%,33.83%,29.69%,31.57%,3.08%
"AGCCUUUCUGAACACAUGCA (tested as dual guide RNA, chemistry not given here) [CR003351]",20.97%,51.77%,30.83%,16.36%,40.28%,23.92%,27.49%,63.51%,36.87%
"AAAGGCUGCUGAUGACACCU (tested as dual guide RNA, chemistry not given here) [CR003353]",2.63%,84.83%,82.23%,2.16%,61.54%,59.38%,62.87%,69.18%,7.73%
"CUUCUCUACACCCAGGGCAC (tested as dual guide RNA, chemistry not given here) [CR003342]",0.90%,32.77%,31.87%,0.81%,20.66%,19.85%,44.66%,45.14%,1.23%
"CCAGUCCAGCAAGGCAGAGG (tested as dual guide RNA, chemistry not given here) [CR003337]",1.30%,54.27%,53.23%,1.88%,49.43%,47.54%,48.95%,55.72%,8.34%
"GUGAGUCUGGAGAGCUGCAU (tested as dual guide RNA, chemistry not given here) [CR003360]",0.63%,32.23%,31.67%,1.19%,31.47%,30.27%,55.13%,58.62%,5.01%
"GCUGCAUGGGCUCACAACUG (tested as dual guide RNA, chemistry not given here) [CR003361]",0.37%,4.10%,3.73%,0.56%,13.08%,12.52%,22.44%,28.68%,6.84%
"AUGCAGCUCUCCAGACUCAC (tested as dual guide RNA, chemistry not given here) [CR003358]",0.80%,5.70%,4.93%,5.67%,31.62%,25.95%,26.60%,36.50%,10.53%
"CAGAGGACACUUGGAUUCAC (tested as dual guide RNA, chemistry not given here) [CR003343]",1.50%,77.10%,75.63%,1.63%,43.25%,41.61%,66.97%,76.13%,9.58%
"AGUGAGUCUGGAGAGCUGCA (tested as dual guide RNA, chemistry not given here) [CR003359]",7.50%,63.77%,56.33%,8.51%,59.47%,50.96%,45.97%,66.75%,21.73%
"CAUUGAUGGCAGGACUGCCU (tested as dual guide RNA, chemistry not given here) [CR003347]",0.43%,82.30%,81.97%,0.24%,66.35%,66.11%,30.79%,32.16%,1.64%
